These compounds were tested against T1, human α1G T-type channels (Homo sapiens, UniProt O43497) (assay: T-type calcium channel block, whole cell patch clamp in HEK cells (α1G)). Conditions: HEK cells, patch clamp, mainly non-inactivated protocol; values above 10 μM shown as 10 μM, below 0.30 μM shown as 0.30 μM; read-out: T-type Calcium Channel Block α1G IC50.
T1 construct: expressed in transfected cells; host or cells: HEK 293
Format: cell-based
Method: T-type calcium channel blocking activity was assayed in human embryonic kidney cells, HEK 293, stably transfected with the T-type calcium channel subunits. Briefly, cells were cultured in Dulbecco's modified eagle medium (DMEM) supplemented with 10% fetal bovine serum, 200 U/ml penicillin and 0.2 mg/ml streptomycin at 37° C. with 5% CO2. At 85% confluency cells were split with 0.25% trypsin/1 mM EDTA and plated at 10% confluency on glass coverslips. […] Fresh DMEM was supplied and the cells transferred to 28° C./5% CO2. Cells were incubated for 1 to 2 days prior to whole cell recording.
Standard patch-clamp techniques were employed to identify blockers of T-type currents. Briefly, previously described HEK cell lines stably expressing human α1G, α1H and α1I T-type channels were used for all the recordings (passage #: 4-20, 37° C., 5% CO2). Whole cell patch clamp experiments were performed using an Axopatch 200B amplifier (Axon Instruments, Burlingame, Calif.) linked to a personal computer equipped with pCLAMP software. Data were analyzed using Clampfit (Axon Instruments) and SigmaPlot 4.0 (Jandel Scientific). To obtain T-type currents, plastic dishes containing semi-confluent cells were positioned on the stage of a ZEISS AXIOVERT S100 microscope after replacing the culture medium with external solution (see below). Whole-cell patches were obtained using pipettes (borosilicate glass with filament, O.D.: 1.5 mm, I.D.: 0.86 mm, 10 cm length), fabricated on a SUTTER P-97 puller with resistance values of ˜5 MΩ (see below for internal solution).
In the non-inactivating protocol, the holding potential is set at −110 mV and with a pre-pulse at −100 mV for 1 second prior to the test pulse at −40 mV for 50 ms.
Test compounds were dissolved in external solution, 0.1-0.01% DMSO. After ˜10 min rest, they were applied by gravity close to the cell using a WPI microfil tubing. The “non-inactivated” pre-pulse was used to examine the resting block of a compound. The “inactivated” protocol was employed to study voltage-dependent block. […] Values are shown in μM and values above 10 μM are simply represented as 10 μM.

T1 sequence (O43497 whole entry): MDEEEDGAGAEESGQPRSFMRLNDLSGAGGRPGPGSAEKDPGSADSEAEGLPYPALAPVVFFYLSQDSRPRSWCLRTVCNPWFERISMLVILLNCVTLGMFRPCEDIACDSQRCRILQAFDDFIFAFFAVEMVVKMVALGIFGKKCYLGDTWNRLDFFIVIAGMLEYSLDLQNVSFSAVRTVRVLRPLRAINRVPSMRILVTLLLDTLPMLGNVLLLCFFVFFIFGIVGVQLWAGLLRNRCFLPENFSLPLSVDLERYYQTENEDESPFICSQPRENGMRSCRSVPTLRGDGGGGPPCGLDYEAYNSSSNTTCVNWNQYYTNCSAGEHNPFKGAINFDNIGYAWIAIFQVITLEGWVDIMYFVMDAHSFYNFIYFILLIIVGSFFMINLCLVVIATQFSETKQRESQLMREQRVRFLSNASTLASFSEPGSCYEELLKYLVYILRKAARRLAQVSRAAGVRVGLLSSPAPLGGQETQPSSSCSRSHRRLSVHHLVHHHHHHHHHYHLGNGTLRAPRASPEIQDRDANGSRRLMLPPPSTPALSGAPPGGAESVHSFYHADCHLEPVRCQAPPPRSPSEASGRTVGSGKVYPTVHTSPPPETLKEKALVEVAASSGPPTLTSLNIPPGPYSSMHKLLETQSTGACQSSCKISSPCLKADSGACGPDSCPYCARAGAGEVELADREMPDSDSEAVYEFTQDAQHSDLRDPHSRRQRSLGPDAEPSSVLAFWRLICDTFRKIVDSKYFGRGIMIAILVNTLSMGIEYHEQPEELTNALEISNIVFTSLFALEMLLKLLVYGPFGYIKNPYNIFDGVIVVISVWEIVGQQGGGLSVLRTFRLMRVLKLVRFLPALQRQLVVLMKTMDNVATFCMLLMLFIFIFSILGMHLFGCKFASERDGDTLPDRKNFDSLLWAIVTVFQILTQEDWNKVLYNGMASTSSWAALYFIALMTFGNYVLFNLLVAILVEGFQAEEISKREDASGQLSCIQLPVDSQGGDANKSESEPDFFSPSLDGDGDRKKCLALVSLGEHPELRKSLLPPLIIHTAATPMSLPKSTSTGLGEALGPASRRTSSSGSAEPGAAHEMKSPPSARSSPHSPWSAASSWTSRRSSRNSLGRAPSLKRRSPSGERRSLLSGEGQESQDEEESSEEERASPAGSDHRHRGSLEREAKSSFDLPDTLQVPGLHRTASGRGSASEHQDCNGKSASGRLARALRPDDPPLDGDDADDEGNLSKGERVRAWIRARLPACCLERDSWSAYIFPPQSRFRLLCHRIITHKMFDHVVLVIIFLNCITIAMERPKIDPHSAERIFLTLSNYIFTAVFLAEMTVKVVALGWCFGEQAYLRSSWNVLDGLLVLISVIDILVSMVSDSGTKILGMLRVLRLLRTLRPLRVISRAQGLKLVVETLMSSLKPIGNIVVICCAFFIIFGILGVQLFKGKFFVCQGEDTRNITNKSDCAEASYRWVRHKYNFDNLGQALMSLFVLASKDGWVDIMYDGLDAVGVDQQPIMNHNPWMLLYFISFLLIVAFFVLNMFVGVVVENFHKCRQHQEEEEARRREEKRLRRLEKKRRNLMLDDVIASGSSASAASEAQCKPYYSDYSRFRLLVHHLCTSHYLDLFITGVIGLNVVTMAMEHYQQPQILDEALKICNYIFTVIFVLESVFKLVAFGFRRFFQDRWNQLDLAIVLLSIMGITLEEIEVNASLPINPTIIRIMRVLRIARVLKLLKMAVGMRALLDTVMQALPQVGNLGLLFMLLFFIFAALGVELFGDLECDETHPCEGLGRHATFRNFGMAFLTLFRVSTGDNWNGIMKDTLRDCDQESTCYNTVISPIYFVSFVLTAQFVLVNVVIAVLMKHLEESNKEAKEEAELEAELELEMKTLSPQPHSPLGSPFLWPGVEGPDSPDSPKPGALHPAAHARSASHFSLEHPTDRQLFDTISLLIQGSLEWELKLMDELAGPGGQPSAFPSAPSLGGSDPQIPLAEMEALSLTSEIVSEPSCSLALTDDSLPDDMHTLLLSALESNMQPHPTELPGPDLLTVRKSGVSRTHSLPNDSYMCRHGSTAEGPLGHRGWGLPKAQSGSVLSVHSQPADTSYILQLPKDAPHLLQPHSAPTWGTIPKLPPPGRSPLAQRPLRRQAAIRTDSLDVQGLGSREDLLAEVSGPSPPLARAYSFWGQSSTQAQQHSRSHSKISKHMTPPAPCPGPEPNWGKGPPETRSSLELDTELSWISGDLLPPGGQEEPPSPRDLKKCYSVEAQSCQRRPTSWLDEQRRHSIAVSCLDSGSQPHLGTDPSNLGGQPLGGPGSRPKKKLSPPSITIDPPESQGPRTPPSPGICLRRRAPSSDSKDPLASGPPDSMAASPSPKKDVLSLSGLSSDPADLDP

| Compound | IC50 |
| --- | --- |
| Cc1cc(C)cc(C(=O)NCC2CCN(CCNC(=O)C3CCCC3)CC2)c1 [Compound 392, N-((1-(2-(cyclopentanecarboxamido)ethyl)piperidin-4-yl)methyl)-3,5-dimethyl-benzamide] | 2010 nM |
| O=C(NCC1CCN(CCNC(=O)C2CCCC2)CC1)c1cc(F)cc(Cl)c1 [Compound 397, 3-chloro-N-((1-(2-(cyclopentanecarboxamido)ethyl)piperidin-4-yl)methyl)-5-fluoro-benzamide] | 1780 nM |
| O=C(NCC1CCN(CCNC(=O)C2CCCC2)CC1)c1cccc(C(F)(F)F)c1 [Compound 398, N-((1-(2-(cyclopentanecarboxamido)ethyl)piperidin-4-yl)methyl)-3-(trifluoromethyl)benzamide] | 3530 nM |
| O=C(NCC1CCN(CCNC(=O)C2CCCC2)CC1)c1cc(F)cc(C(F)(F)F)c1 [Compound 402, N-((1-(2-(cyclopentanecarboxamido)ethyl)piperidin-4-yl)methyl)-3-fluoro-5-(trifluoromethyl)benzamide] | 540 nM |
| COc1cc(C(=O)NCC2CCN(CCNC(=O)C3CCCC3)CC2)cc(C(F)(F)F)c1 [Compound 404, N-((1-(2-(cyclopentanecarboxamido)ethyl)piperidin-4-yl)methyl)-3-methoxy-5-(trifluoromethyl)benzamide] | 380 nM |
| O=C(NCC1CCN(CCNC(=O)C2CCCC2)CC1)c1cc(Br)cc(C(F)(F)F)c1 [Compound 407, 3-bromo-N-((1-(2-(cyclopentanecarboxamido)ethyl)piperidin-4-yl)methyl)-5-(trifluoromethyl)benzamide] | < 300 nM |
| O=C(NCC1CCN(CCNC(=O)C2CCCC2)CC1)c1cc(Br)cc(Br)c1 [Compound 409, 3,5-dibromo-N-((1-(2-(cyclopentanecarboxamido)ethyl)piperidin-4-yl)methyl)benzamide] | < 300 nM |
| CN(CC1CCN(CCNC(=O)NC(C)(C)C)CC1)C(=O)c1cc(F)cc(C(F)(F)F)c1 [Compound 411, N-((1-(2-(3-tert-butylureido)ethyl)piperidin-4-yl)methyl)-3-fluoro-N-methyl-5-(trifluoromethyl)benzamide] | > 10000 nM |
| CN(CC1CCN(CCNC(=O)C(C)(C)C)CC1)C(=O)c1cc(F)cc(C(F)(F)F)c1 [Compound 412, 3-fluoro-N-methyl-N-((1-(2-pivalamidoethyl)piperidin-4-yl)methyl)-5-(trifluoromethyl)benzamide] | > 10000 nM |
| CN(CC1CCN(CCNC(=O)CC(C)(C)C)CC1)C(=O)c1cc(F)cc(C(F)(F)F)c1 [Compound 413, N-((1-(2-(3,3-dimethylbutanamido)ethyl)piperidin-4-yl)methyl)-3-fluoro-N-methyl-5-(trifluoromethyl)benzamide] | > 10000 nM |
| CCS(=O)(=O)N1CCC[C@H]1CN1CCC(CNC(=O)c2cc(F)cc(C(F)(F)F)c2)CC1 [Compound 417] | 9490 nM |
| O=C(NCC1CCN(C[C@@H]2CCCN2S(=O)(=O)C2CCCC2)CC1)c1cc(F)cc(C(F)(F)F)c1 [Compound 420, (S)-N-((1-((1-(cyclopentylsulfonyl)pyrrolidin-2-yl)methyl)piperidin-4-yl)methyl)-3-fluoro-5-(trifluoromethyl)benzamide] | 700 nM |
| O=C(NCC1CCN(C[C@@H]2CCCN2S(=O)(=O)CC2CC2)CC1)c1cc(F)cc(C(F)(F)F)c1 [Compound 421, (S)-N-((1-((1-(cyclopropylmethylsulfonyl)pyrrolidin-2-yl)methyl)piperidin-4-yl)methyl)-3-fluoro-5-(trifluoromethyl)benzamide] | 4040 nM |

Results, then the compound that gave them:

| IC50 | Compound |
| --- | --- |
| 6040 nM | Cc1cc(F)cc(C(=O)NCC2CCN(CCNC(=O)C3CCCC3)CC2)c1 [Compound 393, N-((1-(2-(cyclopentanecarboxamido)ethyl)piperidin-4-yl)methyl)-3-fluoro-5-methylbenzamide] |
| 4610 nM | O=C(NCC1CCN(CCNC(=O)C2CCCC2)CC1)c1cccc(Cl)c1 [Compound 394, 3-chloro-N-((1-(2-(cyclopentanecarboxamido)ethyl)piperidin-4-yl)methyl)benzamide] |
| > 10000 nM | O=C(NCC1CCN(CCNC(=O)C2CCCC2)CC1)c1cc(F)cc(F)c1 [Compound 395, N-((1-(2-(cyclopentanecarboxamido)ethyl)piperidin-4-yl)methyl)-3,5-difluoro-benzamide] |
| 2910 nM | COc1cc(F)cc(C(=O)NCC2CCN(CCNC(=O)C3CCCC3)CC2)c1 [Compound 396, N-((1-(2-(cyclopentanecarboxamido)ethyl)piperidin-4-yl)methyl)-3-fluoro-5-methoxybenzamide] |
| 1500 nM | O=C(NCC1CCN(CCNC(=O)C2CCCC2)CC1)c1cccc(Br)c1 [Compound 400, 3-bromo-N-((1-(2-(cyclopentanecarboxamido)ethyl)piperidin-4-yl)methyl)benzamide] |
| 910 nM | O=C(NCC1CCN(CCNC(=O)C2CCCC2)CC1)c1cccc(OC(F)(F)F)c1 [Compound 401, N-((1-(2-(cyclopentanecarboxamido)ethyl)piperidin-4-yl)methyl)-3-(trifluoromethoxy)benzamide] |
| 1110 nM | CCOc1cc(OCC)cc(C(=O)NCC2CCN(CCNC(=O)C3CCCC3)CC2)c1 [Compound 403, N-((1-(2-(cyclopentanecarboxamido)ethyl)piperidin-4-yl)methyl)-3,5-diethoxybenzamide] |
| < 300 nM | O=C(NCC1CCN(CCNC(=O)C2CCCC2)CC1)c1cc(Cl)cc(C(F)(F)F)c1 [Compound 405, 3-chloro-N-((1-(2-(cyclopentanecarboxamido)ethyl)piperidin-4-yl)methyl)-5-(trifluoromethyl)benzamide] |
| < 300 nM | O=C(NCC1CCN(CCNC(=O)C2CCCC2)CC1)c1cc(Cl)cc(Br)c1 [Compound 406, 3-bromo-5-chloro-N-((1-(2-(cyclopentanecarboxamido)ethyl)piperidin-4-yl)methyl)benzamide] |
| 3360 nM | O=C(Cc1cc(C(F)(F)F)cc(C(F)(F)F)c1)NCC1CCN(CCNC(=O)C2CCCC2)CC1 [Compound 408, N-(2-(4-((2-(3,5-bis(trifluoromethyl)phenyl)acetamido)methyl)piperidin-1-yl)ethyl)cyclopentanecarboxamide] |
| 1150 nM | CC(C)(C)NC(=O)N1CCC[C@H]1CN1CCC(CNC(=O)c2cc(F)cc(C(F)(F)F)c2)CC1 [Compound 410, (S)-N-tert-butyl-2-((4-((3-fluoro-5-(trifluoromethyl)benzamido)methyl)piperidin-1-yl)methyl)pyrrolidine-1-carboxamide] |
| > 10000 nM | CS(=O)(=O)N1CCC[C@H]1CN1CCC(CNC(=O)c2cc(F)cc(C(F)(F)F)c2)CC1 [Compound 416, (S)-3-fluoro-N-((1-((1-(methylsulfonyl)pyrrolidin-2-yl)methyl)piperidin-4-yl)methyl)-5-(trifluoromethyl)benzamide] |
| 2170 nM | O=C(NCC1CCN(C[C@@H]2CCCN2S(=O)(=O)C2CC2)CC1)c1cc(F)cc(C(F)(F)F)c1 [Compound 418, (S)-N-((1-((1-(cyclopropylsulfonyl)pyrrolidin-2-yl)methyl)piperidin-4-yl)methyl)-3-fluoro-5-(trifluoromethyl) benzamide] |
| 1630 nM | O=C(NCC1CCN(C[C@@H]2CCCN2S(=O)(=O)C2CCC2)CC1)c1cc(F)cc(C(F)(F)F)c1 [Compound 419, (S)-N-((1-((1-(cyclobutylsulfonyl)pyrrolidin-2-yl)methyl)piperidin-4-yl)methyl)-3-fluoro-5-(trifluoromethyl)benzamide] |

Reference: US8569344B2, “N-piperidinyl acetamide derivatives as calcium channel blockers” (Zalicus Pharmaceuticals Ltd., priority 2008, dated 2013)
